Values of other authors as cited in patent US20220378773A1, “METHODS FOR TREATING LEUKEMIA AND USE OF A LEUKEMIC STEM CELL SIGNATURE TO PREDICT CLINICAL SENSITIVITY TO THERAPIES” (CELGENE CORPORATION, priority 2019, published 2022).

Legend:
[1] = test system: acute myeloid leukemia (AML) at relapse; conditions: administered alone; cited from earlier work
[2] = relative humidity increased from about 0% to about 90% RH; cited from earlier work

Compound | response in treating AML at relapse [1] | water uptake [2]
CT-011: anti-PD-1 antibody, a humanized antibody | failed to show response | –
O=C1CCC(N2Cc3cc(CNC(=O)C(F)(F)c4ccc(Cl)cc4)ccc3C2=O)C(=O)N1 (stereo not shown) [Form C, 2-(4-chlorophenyl)-N-((2-(2,6-dioxopiperidin-3-yl)-1-oxoisoindolin-5-yl)methyl)-2,2-difluoroacetamide] | – | about 0.6 % w/w
O=C1CCC(N2Cc3cc(CNC(=O)C(F)(F)c4ccc(Cl)cc4)ccc3C2=O)C(=O)N1 (stereo not shown) [Form B, 2-(4-chlorophenyl)-N-((2-(2,6-dioxopiperidin-3-yl)-1-oxoisoindolin-5-yl)methyl)-2,2-difluoroacetamide] | – | about 1.4 % w/w
O=C1CCC(N2Cc3cc(CNC(=O)C(F)(F)c4ccc(Cl)cc4)ccc3C2=O)C(=O)N1 (stereo not shown) [Form A, 2-(4-chlorophenyl)-N-((2-(2,6-dioxopiperidin-3-yl)-1-oxoisoindolin-5-yl)methyl)-2,2-difluoroacetamide] | – | about 1.2 % w/w
